Measurements published in patent US6972294B1, “Compounds, their preparation and use” (Novo Nordisk, A/S, priority 1999, dated 2005).

- melting point: 84 to 87 °C
Structure (SMILES): CCOC(=O)C(Cc1ccc(OCC=C(c2ccccc2)c2ccncc2)cc1)OCC (stereo not shown) [Example 29, 2-Ethoxy-3-[4-(3-phenyl-3-pyridin-4-yl-allyloxy)-phenyl]-propionic acid ethyl ester]
